Source: patent publication US20110166066A1, “CATESTATIN (CST) AND ITS VARIANTS FOR TREATMENT OF CARDIOVASCULAR AND METABOLIC DISORDERS” (priority 2008, published 2011)
Entries after “also recorded” stand apart in the source; their conditions may differ. Structures can show the parent of a compound that is named as a salt. Where two headings read alike, the source gives them in different places. No end group written: not given here.

B1: vasostatin: another peptide derived from CgA, inhibited angiogenesis induced by VEGF (peptide, UniProt P10645 19-94, looked up)
Vasostatin-1: LPVNSPMNKGDTEVMKCIVEVISDTLSKPSPMPVSQECFETLRGDERILSILRHQNLLKELQDLALQGAKERAHQQ
modifications: Vasostatin-1

Experiments:
[1] = tested on: WT and Chga knockout (KO) mice; test: Response to PE or SNP and baroreflex sensitivity in unconscious mice; format: in vivo; details: for Increase in SBP: 0.005 μg/g bw iv
Protocol: Unconscious mice. Surgical procedures for hemodynamic measurements: Hemodynamic evaluation in both WT and KO mice was performed under general anesthesia [ketamine (100 mg/kg) and xylazine (2.5 mg/kg)] while connected to a ventilator. LV pressure was monitored by Millar micromanometer catheter of size 1.4 French (0.46 mm; Millar Instruments, Houston, Tex.); it was inserted into the LV where phasic and mean pressure was continuously monitored (Gould, Cleveland, Ohio). A venous catheter (MicroRenathane tube MRE-033; Braintree Laboratories, Braintree, Mass.) is implanted on right femoral vein for injection of peptide and other reagents. All physiologic signals were acquired by WINDAQ (Dataq Instruments, Akron, Ohio) and analyzed by BP-Analysis software (developed for own laboratory).
Assessment of baroreflex sensitivity (BRS): BRS (in milliseconds per mmHg) was assessed by both high-pressure [phenylephrine (PE) bolus] and low-pressure [sodium nitroprusside (SNP) bolus] stimuli in unconscious mice. Although conscious animals provide optimal physiological data, a host of undesirable signals are triggered by physical activities, and sleep cycle alterations in behavioral state. Therefore, we have chosen to conduct the experiments in unconscious mice to avoid some of the pitfalls encountered in awake animals. The absolute changes of HR in response to changes in SBP induced by PE or SNP were subjected to linear regression analysis to determine BRS. To test the effect of CST on BRS in KO mice, CST was injected (40 μg/g bw iv) 30 min before the injection of PE or SNP through the catheter implanted into the femoral vein.
BRS to high-pressure stimulus. High pressure BRS was evaluated by recording diminution of HR in response to PE-induced hypertension. Changes in SBP and HR were recorded continuously for 0.5 min after a bolus injection of PE (0.005 μg/g bw iv). This dose was selected from a preliminary dose-response study (0.001-0.05 μg/g bw iv).
BRS to low-pressure stimulus. This was evaluated by recording increments in HR in response to SNP-induced fall in BP. Changes in SBP and HR were recorded continuously for 0.5 min after a bolus injection of SNP (0.05 μg/g bw iv). This dose was selected from a preliminary dose-response study (0.01-0.1 μg/g bw iv).

[2] = tested on: Langendorff perfused rat heart; test: Isoproterenol stimulated Langendorff heart preparations; details: G364S-CST 200 nM, P370L-CST 165 nM; for ISO-induced stimulation of LVP (concentration-response): ISO 0.1 nM to 1 μM, WT-CST 33 and 110 nM
[3] = tested on: Langendorff perfused rat heart; test: as above; details: for ISO stimulatory effect on LVP: measured at 5 min; for Coronary pressure (ISO alone or ISO + peptide) / Inotropism (ISO alone or ISO + peptide) / Lusitropism (ISO alone or ISO + peptide): Table 3, ISO 5 nM
Protocol: Isoproterenol stimulated preparations—Cardiac preparations were stabilized for 20 min with KHs and then perfused with 5 nM ISO for 10 min. ISO was washed-out with KHs. After returning to control conditions, each heart was perfused with KHs containing a single concentration of WT-Cts […] or G364S-Cts (200 nM) with 5 nM ISO for a further 10 min.
To further describe the antagonistic action of either WT-Cts (33 nM), P370L-Cts (110 nM) or G364S-Cts (200 nM) against ISO-dependent stimulation, dose-response curves were generated by perfusing the heart preparations with KHs enriched with increasing concentrations of ISO (0.1 nM to 1 μM) alone. These curves were then compared to those obtained by exposing other cardiac preparations to the same perfusion medium containing increasing concentrations of ISO (0.1 nM to 1 μM) plus a single concentration of either WT-Cts (33 nM) or P370L-Cts (110 nM) or G364S-Cts (200 nM).
Statistics—Data are expressed as the mean±SEM. Curve fitting was accomplished in the program Kaleidagraph (Synergy Software, Reading, Pa.). Peptide EC50 and IC50 values were interpolated as the concentration that achieved 50% stimulation and inhibition, respectively. For analysis of phosphorylated proteins, levels were quantified using Bio-Rad QuantifyOne and volumes of phosphorylated proteins were divided by the levels of non-phosphorylated proteins to calculate fold activation. Stimulation of protein activity was expressed as fold increase over vehicle-treated control. The means and S.E.M. were calculated for each treatment. Multiple comparisons were made using either one-way ANOVA followed by Bonferroni's post-hoc test or two-way ANOVA. Statistical significance was concluded at p<0.05. Statistics were computed with the program InStat (GraphPad Software, Inc., San Diego, Calif.).
To characterize the inhibitory action of either WT-CST (11, 33 or 110 nM), G364S-CST (200 nM) or P370L-CST (110 nM) toward ISO-dependent stimulation of cardiac function, heart preparations were perfused with KHs containing increasing concentrations of ISO (0.1 nM to 1 μM) either alone or in combination with one of the three CST variants.

[4] = tested on: Langendorff perfused rat heart; test: ET-1 stimulated Langendorff heart preparations; details: for ET-1 induced positive inotropism: ET-1 1 nM, WT-CST 33 nM, P370L-CST 110 nM, G364S-CST 200 nM
Protocol: ET-1 stimulated preparations—Hearts, stabilized for 20 min with KHs, were perfused for 10 min with ET-1 (1 nM) and then washed-out with KHs. After returning to control conditions, each heart was perfused with KHs containing a single concentration of either WT-Cts (33 nM), P370L-Cts (110 nM) or G364S-Cts (200 nM) plus 1 nM ET-1 for a further 10 min.

[5] = tested on: Langendorff perfused rat heart; test: Langendorff perfused rat heart, basal conditions: concentration-response of catestatin peptides; details: for Activity rank order / Inotropism / Lusitropism: basal conditions, Table 2
Excerpt: Animals-Male Wistar rats (Morini, Bologna, Italy S.P.A.) weighing 180-250 g were housed (three per cage) in a ventilated cage rack system under standard conditions. Animals had food and water access ad libitum. The investigation conforms to the Guide for the Care and Use of Laboratory Animals, according to NIH Publication No. 85-23, revised 1996. Isolated heart preparation-Rats were anesthetized with ethyl carbamate (2 g/Kg rat, i.p.), the hearts rapidly excised and then transferred in ice-cold buffered Krebs-Henseleit solution (KHs). As previously described (23), the aorta was immediately cannulated with a glass cannula and connected to Langendorff apparatus to start perfusion at constant flow-rate (12 ml/min). Briefly, the apex of the left ventricle (LV) was pierced to avoid fluid accumulation. A water-filled latex balloon, connected to a pressure transducer ([…], Inc. USA), was inserted through mitral valve into the LV allowing isovolumic contractions and continuous mechanical parameters recording. Another pressure transducer located just above the aorta recorded coronary pressure (CP). […] Hemodynamic parameters were assessed using a PowerLab data acquisition system and analysed using Chart software (both purchased by ADInstruments, Basile, Italy). […] Curve fitting was accomplished in the program Kaleidagraph (Synergy Software, Reading, Pa.). Peptide EC50 and IC50 values were interpolated as the concentration that achieved 50% stimulation and inhibition, respectively. For analysis of phosphorylated proteins, levels were quantified using Bio-Rad QuantifyOne and volumes of phosphorylated proteins were divided by the levels of non-phosphorylated proteins to calculate fold activation. Stimulation of protein activity was expressed as fold increase over vehicle-treated control. The means and S.E.M. were calculated for each treatment. Multiple comparisons were made using either one-way ANOVA followed by Bonferroni's post-hoc test or two-way ANOVA. Statistical significance was concluded at p<0.05. Statistics were computed with the program InStat (GraphPad Software, Inc., San Diego, Calif.).

sympathochromaffin cells = details: in vitro; cited from earlier work
ECs = details: cited from earlier work

Molecule	ISO-induced stimulation of LVP (concentration-response) [2]	ISO induced coronary dilation ([3]; ISO 5 nM)	ISO-induced positive lusitropism ([3]; ISO 5 nM)	Rank order of potency against ISO ([3]; ISO 5 nM)	ISO stimulatory effect on LVP ([3]; ISO 5 nM)	Coronary pressure (ISO alone or ISO + peptide) [3]	Inotropism (ISO alone or ISO + peptide) [3]	Lusitropism (ISO alone or ISO + peptide) [3]	ET-1 induced positive inotropism [4]	Activity rank order [5]	Inotropism [5]	Lusitropism [5]	Rank order of potency, inhibition of catecholamine secretion (sympathochromaffin cells)	also measured
CNC[C@H](O)c1cccc(O)c1 [PE, phenylephrine]														PE-induced bradycardia ([1]; KO mice): completely abolished; Increase in SBP ([1]; KO mice): 45.6 mmHg; Decrease in HR ([1]; WT mice, 0.005 μg/g bw): 26 bpm; Increase in SBP ([1]; WT mice): 34.1 mmHg
G364S-CST: SEQ ID NO. 4 SSMKLSFRARAYSFRGPGPQL, naturally occurring Gly364Ser variant of catestatin (listed as Homo sapiens)	significantly inhibited	blocked	blocked	Order of potency: WT-CST > G364S-CST > P370L-CST	abolished	Abolished	Abolished	Abolished	blocked	Activity: WT-CST > P370L-CST > G364S-CST	No effect	No effect	Pro370Leu>wild-type (WT)>Gly364Ser>Arg374Gln; also recorded: Pro370Leu>wildtype (WT)>Gly364Ser>Arg374Gln	Block of ISO-dependent +(LVdP/dT)max ([3]; ISO 5 nM): > 100%; ISO-dependent decrease of T/−t ([3]; ISO 5 nM): blocked; Other parameters tested (HR, LVP, +(LVdP/dT)max, −(LVdP/dT)max) ([5]; 11 to 200 nM): unaffected; Effect on RPP ([5]; even at 33 nM): significant increase
CC(C)NCC(O)c1ccc(O)c(O)c1 (centres unmarked) [ISO, Isoproterenol hydrochloride, reference compound]						Vasodilation	Positive	Positive						EC50 ([2]; Rattus norvegicus, Table 3, values match WT-CST 110 nM, read-out: EC50 (ISO on LVP, alone or + peptide) (converted)): 2.14 nM; Effect of ISO alone on LVP ([3]; 5 nM to 1 μM): increased LVP significantly; EC50 ([3]; Rattus norvegicus, ISO alone, read-out: EC50 of ISO-mediated LVP stimulation (converted)): 2.14 nM
P370L-CST: SEQ ID NO. 3 SSMKLSFRARAYGFRGPGLQL, naturally occurring Pro370Leu variant of catestatin (listed as Homo sapiens)	significantly inhibited	remaining unchanged	failed to modulate	Order of potency: WT-CST > G364S-CST > P370L-CST	abolished	No effect	Abolished	Abolished	blocked	Activity: WT-CST > P370L-CST > G364S-CST	Negative	No effect	Pro370Leu>wild-type (WT)>Gly364Ser>Arg374Gln; also recorded: Pro370Leu>wildtype (WT)>Gly364Ser>Arg374Gln	Concentration of maximum decrease in +(LVdP/dT)max [5]: 200 nM; Concentration of maximum decrease in LVP and RPP [5]: 200 nM; Effect on −(LVdP/dT)max [5]: marked decrease; Effect on CP (coronary pressure) ([5]; basal): not accompanied by changes; Effect on HR ([5]; basal, WT-Cts significant at 33 nM): not accompanied by changes; Inotropic effect (LVP, RPP) ([5]; from 110 to 200 nM): negative inotropism; Effect on +(LVdP/dT)max ([5]; starting from 110 nM): marked decrease
endothelin-1 (CSCSSLMDKECVYFCHLDIIW; ends and bridges not checked; cysteine pairing not given here; UniProt P05305 53-73, looked up) [ET-1, endothelin-1, purchased from Sigma, reference compound]														Effect on LVP and +(LVdP/dT)max ([4]; 1 nM): increased; Effect on coronary constriction ([4]; ET-1 alone 1 and 10 nM): significant increase in coronary constriction
B1														Concentration at which effects were found (ECs): 330 nM
